Source: PubChem BioAssay AID179 (DTP/NCI, 2004)
Active and inactive are the calls of the source.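 How the source made its calls: active means compounds giving half or more protection of infected cells from virus-caused growth loss, again on retest; inactive means the rest.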 Where a SMILES comes first, the peptide text is derived from it. [ ]: non-standard residue; d: D form. The star is where a group is joined. ξ: configuration not given here. Hpg = N[CH](C(=O)O)c1ccc(O)cc1; NMeN = CN[C@@H](CC(N)=O)C(=O)O; NMeV = CN[C@H](C(=O)O)C(C)C; ξNMeV = CNC(C(=O)O)C(C)C; Boc = CC(C)(C)OC(=O)*; ξNMeA = CNC(C)C(=O)O

System: CEM cells HIV-1 protection, formazan growth assay
Assay: NCI AIDS Antiviral Assay
Conditions: for IC50: measured here: growth of uninfected CEM cells
Procedure, shortened: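 Category rules: moderately active means at least 50% protection on retest, and confirmed active means 100% protection reproducibly. The underlying data came from a formazan growth assay in HIV-1-infected CEM cells.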

SMILES	EC50	IC50	outcome
[Cu+2].[O-]/N=C/c1ccc(O)cc1[O-].[O-]/N=C/c1ccc(O)cc1[O-]	> 26.9 µM	13.2 µM	
O=C(c1ccccc1)c1ccc2cccc(OC3OC(CO)C(O)C(O)C3O)c2n1 (configuration not stated)	> 603 µM	316 µM	
O=C1COc2cc3c(cc2N1)SCC(=O)N3	> 42.7 µM	> 42.7 µM	
NNC(=S)NN/C=C(\C=Nc1ccccc1)[N+](=O)[O-]	> 178 µM	155 µM	
COc1ccc2ncc(COC(=O)NC3CCCCC3)c(COC(=O)NC3CCCCC3)c2c1	> 174 µM	40.7 µM	
N#CC(N)=Nc1ccccc1	> 617 µM	347 µM	
CNC(=O)CCCNC(=O)CCCC(=O)OC	> 200 µM	> 200 µM	
O=C(O)c1c[nH]c2c(ccc3[nH]cc(C(=O)O)c(=O)c32)c1=O	> 200 µM	> 200 µM	
COC(C(O)c1ccc2c(c1)OCO2)P(=O)(c1ccccc1)c1ccccc1 (configuration not stated)			inactive
S=C=NC/C(Cl)=C/Cl	> 200 µM	129 µM	
CC1CCOC(=O)/C=C/C=C/C(=O)OC2CC3OC4C5OC5(C)C(O)CC4(COC(=O)C1O)C2(C)C31CO1 (configuration not stated)	> 2 µM	0.0468 µM	
O=C(N[C@H](CO)[C@H](O)c1ccc([N+](=O)[O-])cc1)C(Cl)Cl	> 200 µM	> 200 µM	
COC(=O)C(C)N(C)C(=O)[C@H](CC(N)=O)N(C)C(=O)[C@@H]1CCCN1C(=O)[C@H](C(C)C)N(C)C(=O)C(C(C)C)N(C)C(=O)[C@@H](NC(=O)OC(C)(C)C)C(C)C (some centres not stated) (Boc-V[ξNMeV][NMeV]P[NMeN][ξNMeA]-OMe)	> 324 µM	> 324 µM	
CC(C)NCCNC(=O)c1ccccc1Nc1c(Cl)cccc1Cl	> 200 µM	14.8 µM	
C1=Cc2ccccc2/C1=C/c1ccc2c(c1)OCO2	> 20.9 µM	12.3 µM	
c1ccc2c(c1)CC1c3[nH]c4ccccc4c3CCN21 (configuration not stated)	> 200 µM	55 µM	
CCCc1cc(=O)oc2c3c(c4c(c12)OC(C)(C)C(O)C4=O)O[C@@H](C)[C@H](C)[C@@H]3O (some centres not stated)	> 200 µM	85.1 µM	
Cc1ccc(Oc2ccc(C(=O)c3cccc(C(=O)c4ccc(Oc5ccc(C)cc5)cc4)n3)cc2)cc1	> 3.8 µM	> 3.8 µM	
CCC(=O)N1NC(=O)C(CC)(CC)C1=O	> 200 µM	> 200 µM	
CCOC(=O)CCC(NC(=O)OCc1ccccc1)C(=O)NC(CCC(=O)OCC)C(=O)NC(CCC(=O)OCC)C(=O)NC(CCC(=O)OCC)C(=O)NC(CCC(=O)OCC)C(=O)NC(CCC(=O)OCC)C(=O)NC(CCC(=O)OCC)C(=O)OCC (configuration not stated)	> 100 µM	30.2 µM	
NC1=NS(=O)(=O)N=C(N)C1=NNc1ccccc1	> 933 µM	141 µM	
CC(C)OP(=O)(OC(C)C)/C(N)=N/Nc1ccc([N+](=O)[O-])cc1	> 195 µM	> 100 µM	

SMILES	EC50	IC50	outcome
Cc1cc(NS(=O)(=O)c2ccc(NC(=O)c3ccc(Cl)c4c(Nc5ccc(S(=O)(=O)Nc6cc(C)on6)cc5)c5ccccc5nc34)cc2)no1	> 47.9 µM	> 47.9 µM	
Cc1cc(C)c2c(c1)CC1(Cc3ccc(C)c(C)c3C1=O)C2=O (configuration not stated)	> 100 µM	> 100 µM	
CC(=O)C(=Cc1cccc(Br)c1)C(C)=O	> 135 µM	7.41 µM	
C/C(=N\N=C(/[Se])N1CC2CCC(CC2)C1)c1ccccn1	> 53.7 µM	0.17 µM	
O=c1[nH]ccc(CNC23CC4CC(CC(C4)C2)C3)c1O	> 45.7 µM	> 45.7 µM	
C=CCOc1ccccc1C1(O)c2ccccc2C2=NCCCN21 (configuration not stated)	> 200 µM	40.7 µM	
CCCCCCCCCCCCCC(=O)O[C@H]1CC[C@H](NC(=O)[C@H](OC)[C@H](O)[C@@H](O)[C@H](O)/C=C/C(C)C)C(=O)NC1	> 2 µM	0.00661 µM	
Cc1cccc(NC(=S)NNC(=O)c2cc(-c3ccccc3)nc3ccccc23)c1	> 200 µM	24 µM	
CCN(CC)CCOC(=O)c1ccc(N=NC2Sc3nc4ccccc4n3C2=O)cc1 (configuration not stated)			inactive
CCOC(=O)NCC(=O)NCC(=O)NCC(N)=O	> 200 µM	> 200 µM	
O=S(=O)(c1ccccc1)S(=O)(=O)c1ccccc1	> 47.9 µM	> 47.9 µM	
CCOc1ccc(OCC(=O)O)c2c1CCCC2=O			inactive
Cc1cccc(C(C)C)c1NC(=O)C(=O)CC(=O)c1c(C)n([O-])c2ccccc2[n+]1=O	> 85.1 µM	17 µM	
CC(C)CC(N)C(=O)NC(C(N)=O)c1ccc(O)cc1 (configuration not stated) (H-Leu-[Hpg]-NH2; configuration not given here)	> 200 µM	> 200 µM	
Nc1ccc2ccccc2c1N=Nc1ccc(/C=C/c2ccc(N=Nc3c(N)ccc4ccccc34)cc2S(=O)(=O)O)c(S(=O)(=O)O)c1	63.1 µM	115 µM	
O=S(=O)(CC(Cl)c1ccccc1)c1nc2ccccc2s1 (configuration not stated)	> 200 µM	2.14 µM	
CCOC(=O)C1SCCC1(C)O (configuration not stated)			inactive
Cc1ccccc1Nc1cn(COCc2ccccc2)c(=O)[nH]c1=O	> 200 µM	42.7 µM	
CN(CCCNc1ccc2ncn3c4ccccc4c(=O)c1c23)CCCN1C(=O)c2cccc3cc([N+](=O)[O-])cc(c23)C1=O	0.01 µM	0.0316 µM	
[N-]=[N+]=Nc1c([N+](=O)[O-])c(=O)n(-c2ccccc2)c2ccccc12	> 200 µM	13.5 µM	
N#CCC1COc2ccccc2O1 (configuration not stated)	> 200 µM	> 200 µM	
CN(CCS(=O)(=O)N1C(=O)C2CCCN2C(=O)[C@@H]1Cc1ccccc1)C(=O)OCc1ccccc1 (some centres not stated)	> 50.1 µM	> 50.1 µM	

SMILES	EC50	IC50	outcome
Cc1cc(=O)n2nc(CSc3nnc(Sc4cc(O)ccc4O)s3)sc2n1	> 200 µM	28.8 µM	
NCC1=NCCN1	> 200 µM	> 200 µM	
CN(C)CC1CN=C(NC(=O)Nc2ccccc2)O1 (configuration not stated)	> 200 µM	> 200 µM	
C[N+](C)(C)CC1CCCC(C[N+](C)(C)C)C1=NO (configuration not stated)			inactive
N#CSC#Cc1ccc(C#CSC#N)cc1	> 200 µM	2.4 µM	
O=C1C=C[C@@]23C=Cc4ccccc4C2CC(O)C1C3 (some centres not stated)	> 245 µM	135 µM	
C=C(COC(=O)C(C)C)[C@H]1Oc2ccc(C(C)=O)cc2[C@@H]1OC(=O)C(C)C	> 200 µM	> 200 µM	
CNC(=O)OCCOc1ccccc1	> 200 µM	> 200 µM	
COc1cc(Br)c2nsnc2c1	> 29.5 µM	> 29.5 µM	
c1ccc2c(c1)c1ccccc1c1nc3c(nc21)CCCC3	> 200 µM	> 200 µM	
CCCC/C=C(/C1OC(=O)N2CCC[C@H]2C1(C)C)[Si](C)(C)C (some centres not stated)	> 6.17 µM	> 6.17 µM	
O=CN/C=C/c1ccccc1O	> 200 µM	> 200 µM	
Cc1c2ccccc2nc(CSCCC(C)C)[n+]1[O-]	28.8 µM	135 µM	
OC(c1cccs1)c1cc2ccccc2s1 (configuration not stated)	> 200 µM	117 µM	
O=P1(N2CCCCC2)OCC2(CO1)COP(=O)(N1CCCCC1)OC2 (configuration not stated)	> 200 µM	> 200 µM	
CN1CCN(CCSC2Cc3cc(Cl)ccc3Sc3ccccc32)CC1 (configuration not stated)	> 64.6 µM	7.76 µM	
COc1cc2c(c(OC)c1OC)C(=O)C1C2N1C(=O)CCCCl (configuration not stated)	> 200 µM	> 200 µM	
CCN(CC)c1ccc2c(c1)Oc1cc(N(CC)CC)ccc1C2c1ccccc1C(=O)O	> 200 µM	> 200 µM	
[N-]=[N+]=NC1C2CC3C4CC5CC3[C@H](C2)C(C5)C41 (some centres not stated)	> 81.3 µM	> 81.3 µM	
Cc1cc2c(cc1-c1cc3c(cc1C)C(C(C)C)=C(O)C(=O)/C3=C\Nc1nc(-c3ccccc3)cs1)/C(=C/Nc1nc(-c3ccccc3)cs1)C(=O)C(O)=C2C(C)C	> 100 µM	13.2 µM	
O=[N+]([O-])c1ccc(C2=Nc3ccccc3SC(c3ccccc3)C2)cc1 (configuration not stated)	> 27.5 µM	> 27.5 µM	
CCOc1ccc(-n2c(=O)c3nn4c(=O)n(-c5ccc(OCC)cc5)c(=O)c4nn3c2=O)cc1	> 200 µM	> 200 µM	

SMILES	EC50	IC50	outcome
O=C(CO)CC(=O)C(=O)Nc1cccc(C(F)(F)F)c1			inactive
CCOC(=O)C(C)c1c(C(=O)c2ccc(C)nc2)c2ccccc2n1C (configuration not stated)			inactive
CC(=O)OC(OC(C)=O)c1c2ccccc2cc2ccccc12	> 200 µM	9.77 µM	
COc1ccc(C(c2cc3c(cc2O)OCO3)N2CCOCC2)c(OC)c1 (configuration not stated)	> 95.5 µM	7.94 µM	
CC(=O)OC1CCC2C3CCC4(C)C(=O)CCC4C3C3OC23C1 (configuration not stated)	> 282 µM	209 µM	
Cc1cc(C)nc(NS(=O)(=O)c2ccc(NC(=O)COC(=O)c3cccc4c(=O)c5ccccc5[nH]c34)cc2)n1			inactive
CC(=O)O/N=C(/C)c1ccccc1O	> 26.9 µM	> 26.9 µM	
CC12OC3(C)c4ccccc4OP3(c3ccccc3)(Oc3ccccc31)O2 (configuration not stated)	> 79.4 µM	> 79.4 µM	
NC1=NN(c2ccccc2)C(=O)C1/C(=N\NC(=O)c1cc2ccccc2cc1O)C(=O)Nc1ccc(Cl)cc1 (configuration not stated)	> 6.92 µM	> 6.92 µM	
CCOC(=O)CCC(NC(=O)C(N)c1ccc([N+](=O)[O-])cc1)C(=O)NC(CCC(=O)OCC)C(=O)OCC (configuration not stated)	> 200 µM	> 200 µM	
CCCCCO/N=C\c1c2c(O)c3c(O)c(C)c4c(c3c1O)C(=O)C(C)(O/C=C\C(OC)C(C)C(OC(C)=O)C(C)C(O)C(C)C(O)C(C)/C=C\C=C(\C)C(=O)N2)O4 (configuration not stated)	> 200 µM	8.91 µM	
CCc1occc(=O)c1O	> 1780 µM	339 µM	
Cc1cc2c(c3ncccc13)OCN(Cc1ccc(Cl)cc1)C2	> 200 µM	1.07 µM	
CCN(CC)CCOc1ccc(/C=C(\C#N)c2ccc(OC)cc2)cc1	> 200 µM	2.14 µM	
Cc1cccc(C)c1NC(=O)C(=O)C1C(=O)N(c2ccccc2)N=C1N (configuration not stated)	> 708 µM	> 708 µM	
COc1ccc(/C=C2/CSCC3=C2NC(=S)NC3c2ccc(OC)c(OC)c2OC)c(OC)c1OC (configuration not stated)	> 200 µM	8.51 µM	
O=C(/C=C(\O)c1ccc(Cl)cc1)C(=O)NN=C(c1ccccc1)c1ccccc1	> 200 µM	16.6 µM	
CCCCCCN(CCCCCC)C(=O)C1=C(C)NC(C)=C(C(=O)N(CCCCCC)CCCCCC)C1	> 200 µM	95.5 µM	
Nc1ccc(/C=C/c2ccc3ncccc3c2)cc1	0.0631 µM	> 200 µM	
